Measured values: publication PMC8550792, “Evolution of kinase polypharmacology across HSP90 drug discovery” (Cell Chemical Biology, 2021)

Tests used:
Experiment in all cases: biochemical
Format in all cases: biochemical
382 unique human kinases [1] = target: T1, 382 unique human kinases (Homo sapiens, UniProt Q12866, A708S); settings: c-MER (A708S), 10 uM; for remaining activity at 10 µM: read-out: % Enzyme Activity (relative to DMSO controls)
T1 construct: purchased Reaction Biology (HotSpot contract assay)
T1 sequence (Q12866 21-999 A708S): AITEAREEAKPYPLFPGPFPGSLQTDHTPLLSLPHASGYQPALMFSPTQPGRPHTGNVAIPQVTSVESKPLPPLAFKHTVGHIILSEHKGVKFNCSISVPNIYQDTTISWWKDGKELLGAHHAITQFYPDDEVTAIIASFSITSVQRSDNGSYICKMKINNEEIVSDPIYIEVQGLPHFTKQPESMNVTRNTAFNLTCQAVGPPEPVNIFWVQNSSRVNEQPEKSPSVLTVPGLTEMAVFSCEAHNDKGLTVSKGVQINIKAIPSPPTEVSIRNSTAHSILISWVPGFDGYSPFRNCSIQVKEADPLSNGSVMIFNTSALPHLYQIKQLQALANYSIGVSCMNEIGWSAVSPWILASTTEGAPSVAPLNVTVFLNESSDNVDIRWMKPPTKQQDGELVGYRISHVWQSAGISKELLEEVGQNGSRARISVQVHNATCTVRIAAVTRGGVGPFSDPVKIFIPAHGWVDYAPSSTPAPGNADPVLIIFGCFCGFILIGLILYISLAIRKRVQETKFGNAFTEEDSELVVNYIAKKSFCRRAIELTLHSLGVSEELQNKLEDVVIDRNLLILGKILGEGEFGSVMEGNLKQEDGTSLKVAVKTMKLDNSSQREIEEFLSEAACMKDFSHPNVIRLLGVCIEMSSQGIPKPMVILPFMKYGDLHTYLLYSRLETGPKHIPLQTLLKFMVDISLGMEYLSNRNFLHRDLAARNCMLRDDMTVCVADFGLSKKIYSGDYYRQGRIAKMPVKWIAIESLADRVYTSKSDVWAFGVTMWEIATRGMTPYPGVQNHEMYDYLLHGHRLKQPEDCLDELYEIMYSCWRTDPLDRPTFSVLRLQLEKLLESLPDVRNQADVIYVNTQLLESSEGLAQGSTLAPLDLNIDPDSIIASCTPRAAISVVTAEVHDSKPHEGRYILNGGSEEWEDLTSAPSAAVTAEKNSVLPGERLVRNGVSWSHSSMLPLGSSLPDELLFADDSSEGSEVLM

382 unique human kinases [2] = target: T2, 382 unique human kinases (Homo sapiens, UniProt Q6IQ55); settings: TTBK2, compound at 10 uM, duplicate values; for remaining activity at 10 µM: read-out: % Enzyme Activity (relative to DMSO controls)
T2 construct: purchased Reaction Biology (HotSpot contract assay)

382 unique human kinases [3] = target: T3, 382 unique human kinases (Homo sapiens, UniProt Q9UHD2); settings: kinase TBK1, compound 10 uM; for remaining activity at 10 µM: read-out: % Enzyme Activity (relative to DMSO controls)
T3 construct: purchased Reaction Biology (HotSpot contract assay)
T3 sequence (Q9UHD2 1-729): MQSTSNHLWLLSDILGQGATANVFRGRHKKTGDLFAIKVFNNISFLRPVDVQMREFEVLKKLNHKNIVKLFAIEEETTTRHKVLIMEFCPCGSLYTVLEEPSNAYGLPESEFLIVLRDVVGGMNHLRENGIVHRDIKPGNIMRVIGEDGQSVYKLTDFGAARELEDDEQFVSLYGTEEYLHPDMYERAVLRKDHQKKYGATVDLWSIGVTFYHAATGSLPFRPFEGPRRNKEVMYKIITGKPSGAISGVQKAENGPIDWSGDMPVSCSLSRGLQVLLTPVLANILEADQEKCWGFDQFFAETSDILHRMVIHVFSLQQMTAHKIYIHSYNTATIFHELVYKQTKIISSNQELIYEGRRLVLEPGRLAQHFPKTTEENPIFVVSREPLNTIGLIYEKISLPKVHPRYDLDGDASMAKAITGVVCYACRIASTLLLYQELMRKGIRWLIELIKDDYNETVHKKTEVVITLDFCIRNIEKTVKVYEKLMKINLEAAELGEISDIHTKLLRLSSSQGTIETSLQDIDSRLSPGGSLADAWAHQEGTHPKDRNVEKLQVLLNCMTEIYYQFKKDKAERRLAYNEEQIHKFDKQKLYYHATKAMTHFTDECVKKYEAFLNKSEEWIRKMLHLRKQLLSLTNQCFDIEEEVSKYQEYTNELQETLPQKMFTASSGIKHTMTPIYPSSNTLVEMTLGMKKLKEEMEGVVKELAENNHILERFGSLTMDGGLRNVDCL

382 unique human kinases [4] = target: T4, 382 unique human kinases (Homo sapiens, UniProt P41743); settings: PKCiota, 10 uM; for remaining activity at 10 µM: read-out: % Enzyme Activity (relative to DMSO controls)
T4 construct: purchased Reaction Biology (HotSpot contract assay)
T4 sequence (P41743 1-596): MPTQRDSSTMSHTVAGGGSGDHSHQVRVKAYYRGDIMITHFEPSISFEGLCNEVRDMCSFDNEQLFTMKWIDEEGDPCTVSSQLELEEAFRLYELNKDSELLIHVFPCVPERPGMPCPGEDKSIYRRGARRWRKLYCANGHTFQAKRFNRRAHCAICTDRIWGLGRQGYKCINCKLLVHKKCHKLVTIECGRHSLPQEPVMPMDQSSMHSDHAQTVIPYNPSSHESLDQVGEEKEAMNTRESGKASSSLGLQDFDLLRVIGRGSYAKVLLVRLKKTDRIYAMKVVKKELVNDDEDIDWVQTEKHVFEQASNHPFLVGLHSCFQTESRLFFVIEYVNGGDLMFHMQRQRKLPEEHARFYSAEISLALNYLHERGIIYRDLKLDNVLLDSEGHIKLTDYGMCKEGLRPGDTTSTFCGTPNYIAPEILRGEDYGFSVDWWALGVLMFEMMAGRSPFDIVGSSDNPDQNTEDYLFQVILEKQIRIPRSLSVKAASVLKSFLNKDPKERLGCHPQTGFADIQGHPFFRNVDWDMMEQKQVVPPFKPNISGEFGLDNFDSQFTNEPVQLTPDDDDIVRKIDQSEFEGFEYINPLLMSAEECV

T2 sequence (Q6IQ55 whole entry): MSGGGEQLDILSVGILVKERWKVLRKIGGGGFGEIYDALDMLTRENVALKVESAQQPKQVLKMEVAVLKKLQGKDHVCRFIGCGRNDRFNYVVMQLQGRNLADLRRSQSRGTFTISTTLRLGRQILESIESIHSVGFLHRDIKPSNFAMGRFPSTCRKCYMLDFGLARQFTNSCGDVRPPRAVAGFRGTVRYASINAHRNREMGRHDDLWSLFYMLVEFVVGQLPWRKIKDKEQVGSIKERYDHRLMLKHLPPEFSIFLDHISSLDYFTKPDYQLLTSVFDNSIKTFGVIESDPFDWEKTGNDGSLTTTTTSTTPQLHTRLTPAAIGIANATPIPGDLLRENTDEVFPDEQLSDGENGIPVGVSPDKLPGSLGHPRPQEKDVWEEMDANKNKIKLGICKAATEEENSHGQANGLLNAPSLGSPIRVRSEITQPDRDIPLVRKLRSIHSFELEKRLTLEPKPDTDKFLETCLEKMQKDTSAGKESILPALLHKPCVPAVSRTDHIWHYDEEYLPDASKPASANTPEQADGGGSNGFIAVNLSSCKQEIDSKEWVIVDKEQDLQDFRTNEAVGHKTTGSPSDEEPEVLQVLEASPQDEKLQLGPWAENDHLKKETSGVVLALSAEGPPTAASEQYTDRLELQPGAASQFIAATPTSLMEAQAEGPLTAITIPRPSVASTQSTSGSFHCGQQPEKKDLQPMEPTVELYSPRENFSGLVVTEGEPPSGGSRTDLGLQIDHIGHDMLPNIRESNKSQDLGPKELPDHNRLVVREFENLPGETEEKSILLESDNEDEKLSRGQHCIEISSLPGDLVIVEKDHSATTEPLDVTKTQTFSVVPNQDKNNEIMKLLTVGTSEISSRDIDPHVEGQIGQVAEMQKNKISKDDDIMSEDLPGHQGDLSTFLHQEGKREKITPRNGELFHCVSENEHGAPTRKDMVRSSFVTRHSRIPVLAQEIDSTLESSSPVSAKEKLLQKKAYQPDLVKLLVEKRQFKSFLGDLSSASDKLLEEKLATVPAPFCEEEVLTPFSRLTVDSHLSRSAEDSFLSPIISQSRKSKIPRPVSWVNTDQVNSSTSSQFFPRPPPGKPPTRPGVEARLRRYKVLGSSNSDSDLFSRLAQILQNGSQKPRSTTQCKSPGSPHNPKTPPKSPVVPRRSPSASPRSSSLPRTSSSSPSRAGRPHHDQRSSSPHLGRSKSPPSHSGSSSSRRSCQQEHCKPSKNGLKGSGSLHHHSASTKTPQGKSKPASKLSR

## CC(C)c1cc(-c2n[nH]c(=O)n2-c2ccc3c(ccn3C)c2)c(O)cc1O [Ganetespib (STA9090)]
382 unique human kinases [1]
  remaining activity at 10 µM: 72.7%
382 unique human kinases [2]
  remaining activity at 10 µM: 124%
382 unique human kinases [3]
  remaining activity at 10 µM: 89.4%

## CCNC(=O)c1noc(-c2cc(C(C)C)c(O)cc2O)c1-c1ccc(CN2CCOCC2)cc1 [Luminespib]
382 unique human kinases [4]
  % Enzyme Activity (relative to DMSO controls): 94.98%
  remaining activity at 10 µM: 96%

## CCNC(=O)c1noc(-c2cc(C(C)C)c(O)cc2O)c1-c1ccc(CN2CCOCC2)cc1 [Luminespib (AUY-922)]
382 unique human kinases [1]
  % Enzyme Activity (relative to DMSO controls): 96.08%
  remaining activity at 10 µM: 98.6%
382 unique human kinases [2]
  % Enzyme Activity (relative to DMSO controls): 121.05%
  remaining activity at 10 µM: 122%
382 unique human kinases [3]
  % Enzyme Activity (relative to DMSO controls): 105.06%
  remaining activity at 10 µM: 107%

## CC(C)c1cc(-c2n[nH]c(=O)n2-c2ccc3c(ccn3C)c2)c(O)cc1O [Ganetespib]
382 unique human kinases [4]
  remaining activity at 10 µM: 94.9%
